Laboratory results taken from US7081495B1, “Cationic compounds and their use as macro molecular carriers” (School of Pharmacy, University of London, priority 1998, dated 2006).
Where “and” joins values, the source holds several entries; their conditions need not be identical. Equal values may be shown once. Non-standard residues stand in square brackets, D forms with d. Residues, ends and D or L forms follow the SMILES beside them. ξ: configuration not given here. *: point of attachment. X1 = NCCCC[C@H](N)C(=O)NCCCC[C@H](NC(=O)[C@@H](N)CCCCN)C(=O)*; ξGly(dodecyl) = CCCCCCCCCCCCC(N)C(=O)O

Assays:
Rat red blood cells = test: RBC lysis, compound alone or complexed with pSVβgal; details: pSVβgal 0.0125 μg/μl, 1 hour at 37° C.
Description: Rat red blood cells were obtained by centrifugation of complete blood. A 2% suspension of cells was made in phosphate buffered saline. […] The lysate supernatant was recovered by centrifugation and the absorbance measured at 540 nm. (Concentration of pSVβgal was 0.0125 μg/μl).

[1] = In vivo distribution of 3H-dendrimer (liquid scintillation counting); design: species or system C57BL/6 mice
Description: Tritiated dendrimer synthesised as described in Example 1 above except 3H labelled BOC-lysine was prepared quantitatively from 3H-lysine purchased commercially based on the method of Keller et al Organ. Synth. 63, 160–170 (1985) (1a: Specific Activity 31Bq/ug @ 5 μg/μl in dH20) were made up to 1.2 μg/μl with 0.9% w/v sodium chloride BP. For each animal, complexes were formed at room temperature by adding 5 μg pCEP4hFIXint (as used in Example 11) in 100 μl 0.9% sodium chloride BP) dropwise to 100 μl dendrimer solution (dendrimer:DNA charge ratio about 4:1) with moderate vortexing. The complexes were then sonicated on ice with a hand-held probe at low power setting several times with three second pulses.
Male C57BL/6mice (8–10 weeks) were divided into two groups. The first group (n=8) were given approx. 150–200 μl of the complexes (exact dose determined by difference in weight of syringe pre/post injection) via tail vein injection. The second (n=4) were administered 150 μl of the complexes in a dosed food particle (isolation/observation confirmed ingestion of the food particle). At time-points 2 hours, 24 hours, 4 days, 7 days (group 1) and 24 hours, and 7 days (group 2) the mice were sacrificed and organs/fluids harvested. Blood and urine were collected when possible post mortem, the former in citrate tubes. Organs were weighed and immediately immersed in liquid nitrogen cooled isopentane to be kept at −80° C.
Organ samples for liquid scintillation counting (for detecting dendrimer) were processed as per “Packard Counting Solutions” protocol for samples <30 mg using Solvable (Packard) for all tissues except blood, urine and digestive tract tissues that were dissolved using Soluene-350 (Packard). The LSC cocktail used was Ultima Gold. Counting time was 10 minutes. Detection of episomal DNA was performed by PCR using primers that amplified a 460 bp section of the plasmid of the 3′ end of hFIX cDNA and the SV40 pA region

[2] = test system: Human Embryonic Kidney (HEK) 293 cells; test: Transient transfection of HEK 293 cells with GABAA receptor α1 subunit cDNA; type: cell-based; details: […] compound 1a
Description: Human Embryonic Kidney (HEK) 293 cells were sub-cultured onto poly-L-lysine coated 35 mm petri dishes such that 24 h later the cells were still sub-confluent. Culture media was replaced on the morning of the transfection procedure. Cells were returned to the CO2—incubator ([…]/95% air) for 3 h.
Compound 1a was incubated with a GABAA receptor αl subunit cDNA-pCDM8 (Mammalian cell expression vector Thompson C. L. et al Neuroscience Let. 144 53–56 (1992)) construct (Fc2 μg/ml) in DMEM at weight ratios of 1:1, 10:1 and 100:1 (1a:α1 cDNA) for 30 minutes prior to transfection.
Cells were washed 3× with serum-free DMEM prior to application of compound 1a/GABAA receptor α subunit cDNA-vector (1ml/dish). Dishes were returned to the incubator (37° C.) for 5 h. Media was then supplemented with DMEM/10% FCS (1 ml/dish), returned to the incubator for 24 h. […]
24 h later the cells were washed 3× with phosphate-buffered saline and then fixed with methanol (−20° C., 25 min, 2 dishes from each regime) or 4% parafarmaldehyde (room temp., 15 min, 2 dishes from each regime). The cells were then processed for GABAA receptor α1 subunit-like immunoreactivity according to Thompson et al. Immunoreactivity was detected by diaminobenzidine staining and visualised under the light microscope.

## CCCCCCCCCCCCC(NC(=O)C(CCCCCCCCCCCC)NC(=O)C(CCCCCCCCCCCC)NC(=O)[C@H](CCCCNC(=O)[C@H](CCCCNC(=O)[C@H](CCCCNC(=O)[C@@H](N)CCCCN)NC(=O)[C@@H](N)CCCCN)NC(=O)[C@H](CCCCNC(=O)[C@@H](N)CCCCN)NC(=O)[C@@H](N)CCCCN)NC(=O)[C@H](CCCCNC(=O)[C@H](CCCCNC(=O)[C@@H](N)CCCCN)NC(=O)[C@@H](N)CCCCN)NC(=O)[C@H](CCCCNC(=O)[C@@H](N)CCCCN)NC(=O)[C@@H](N)CCCCN)C(N)=O (some centres unmarked) [Compound 1b]
Rat red blood cells
  effect of complexing to DNA on erythrocyte lysis: reduces levels of erythrocyte lysis

## CCCCCCCCCCCCC(NC(=O)C(CCCCCCCCCCCC)NC(=O)C(CCCCCCCCCCCC)NC(=O)[C@H](CCCCNC(=O)[C@H](CCCCNC(=O)[C@@H](N)CCCCN)NC(=O)[C@@H](N)CCCCN)NC(=O)[C@H](CCCCNC(=O)[C@@H](N)CCCCN)NC(=O)[C@@H](N)CCCCN)C(N)=O (some centres unmarked) [Compound 1a] (H-KK(Lys)K(X1)[ξGly(dodecyl)][ξGly(dodecyl)][ξGly(dodecyl)]-NH2)
[1]; Oral, 24 hours
  % age Total Dose, Heart: 0.53%
  % age Total Dose, Kidney: 0.52% and 0.29%
  % age Total Dose, Liver: 3.70% and 1.84%
  % age Total Dose, Lungs: 0.78%
  % age Total Dose, Spleen: 0.16% and 0.13%
  % age Total Dose, Urine: 0.48% and 0.75%
[1]; i.v., 2 hours
  % age Total Dose, Heart: 0.22% and 0.06%
  % age Total Dose, Kidney: 0.34% and 0.48%
  % age Total Dose, Liver: 10.35% and 2.07%
  % age Total Dose, Lungs: 0.47% and 0.13%
  % age Total Dose, Spleen: 1.00% and 0.30%
  Activity, Urine: (21 Bq/0.1 ml)
[1]; i.v., 24 hours
  % age Total Dose, Heart: 0.80% and 4.89%
  % age Total Dose, Kidney: 0.57% and 1.63%
  % age Total Dose, Liver: 8.05% and 0.71%
  % age Total Dose, Spleen: 0.61% and 0.07%
  % age Total Dose, Urine: 0.52%
[1]; i.v., 4 days
  % age Total Dose, Heart: 1.48%
  % age Total Dose, Lungs: 0.95%
  % age Total Dose, Muscle: 0.03%
  % age Total Dose, Spleen: 0.18%
  % age Total Dose, Urine: 1.3%
[1]; i.v., 7 days
  % age Total Dose, Heart: 1.53%
  % age Total Dose, Kidney: 0.89% and 5.68%
  % age Total Dose, Liver: 2.91% and 6.53%
  % age Total Dose, Lungs: 0.16%
  % age Total Dose, Spleen: 0.53% and 0.51%
[2]
  cell viability: deleterious to cell viability
